Results on two substances are retold here after US9943844B2, “Microfluidic evaluation system for evaluating the efficacy of an antiperspirant product and associated method” (L'OREAL, priority 2013, dated 2018).

Read-outs that look alike come from different tables or passages of the source.

The nature of test [1]: Microfluidic evaluation of antiperspirant efficacy: clog formation at the confluence of secondary (sweat) channel and main channel, seen by phase contrast microscopy. An excerpt: The invention also has for object a method for evaluating the efficacy of an antiperspirant product comprising the following steps: • supplying an evaluation system 1 such as described hereinabove; • injecting natural and/or artificial sweat into the or each secondary channel 9 of the microfluidic chip 5 from the sweat source 3; • injecting at least one antiperspirant product into the main channel 7; • determining at least one physical-chemical parameter that represents the efficacy of the antiperspirant agent considered; and • evaluating the efficacy of the antiperspirant product using the determined physical-chemical parameter.
The step of filling is followed by a step of distributing, during which the antiperspirant product flowing in the main channel 7 and the sweat flowing in the secondary channel or channels 9 react together, in particular on the zones of confluence between the sweat flowing in the secondary channel or channels 9 and the antiperspirant product flowing in the main channel 7. According to the efficacy of the antiperspirant product, during this step of distributing, the interaction between the sweat and the antiperspirant product leads to the formation of clogs at the outlet 25 of the secondary channel or channels 9.
These values can in particular be Boolean values. For example, the physical-chemical parameter measured is the formation or not of a clog, and it is concluded that the antiperspirant product tested is effective if the formation of a clog is observed during the method. If no formation of a clog is observed, non-efficacy is concluded for the antiperspirant product.
These tests were conducted with the microfluidic chip 4 described hereinabove, and by using as imaging tool 45 a phase contrast microscope.
The injection of the sweat and of the antiperspirant product was carried out according to the sequence described in the table 1.
It is considered that the antiperspirant product is not effective when no clog is formed in the secondary channel 9. In this case, the sweat of the secondary channel 9 can freely flow in the main channel 7.

For test [2] the following is noted: cited from earlier work.

As for Aluminum Zirconium Glycine [AZG], the Evaluation result in test [1] was “Effective”. Further, the “antiperspirant efficacy in vivo” value in test [2] (in vivo) is reported as “effective”.
With aluminum chlorohydrate [ACH], the Evaluation result in test [1] (concentration 5%, injection sequence of table 1, effective = formation of a clog in secondary channel preventing sweat flow, not effective = no clog formed) is “Effective”; in test [1] (concentration 15%, injection sequence of table 1, effective = formation of a clog in secondary channel preventing sweat flow, not effective = no clog formed), “Effective”. In test [2] (known to be (not) effective antiperspirant agent in vivo), the “antiperspirant efficacy in vivo” value is recorded as “effective”.
